Results as given in ChEMBL document CHEMBL3046713, “Synthesis and antimicrobial activity of pyrimidine chalcones” (2013).

Experiments:
Type in all cases: functional
[1] = test system: Escherichia coli; experiment: Antibacterial activity against Escherichia coli DH5[alpha] at 2.5 mg/ml after 24 hrs by Kirby-Bauer single disc susceptibility test; details: read-out: DIZ
[2] = test system: Escherichia coli; experiment: Antibacterial activity against Escherichia coli DH5[alpha] at 5 mg/ml after 24 hrs by Kirby-Bauer single disc susceptibility test; details: read-out: DIZ
[3] = test system: Rhodococcus rhodochrous; experiment: Antibacterial activity against Rhodococcus rhodochrous MTCC 265 at 2.5 mg/ml after 24 hrs by Kirby-Bauer single disc susceptibility test; details: MTCC 265, 24 h, read-out: DIZ
[4] = test system: Rhodococcus rhodochrous; experiment: Antibacterial activity against Rhodococcus rhodochrous MTCC 265 at 5 mg/ml after 24 hrs by Kirby-Bauer single disc susceptibility test; details: MTCC 265, 24 h, read-out: DIZ

SMILES | zone of inhibition at 2500 µg/mL [1] | zone of inhibition at 5000 µg/mL [2] | zone of inhibition at 2500 µg/mL [3] | zone of inhibition at 5000 µg/mL [4]
Cn1c(O)c(C(=O)/C=C/c2ccc(OCc3cn(-c4ccc(F)cc4)nn3)cc2)c(=O)n(C)c1=O | 0 mm | 0 mm | 0 mm | 0 mm
Cn1c(O)c(C(=O)/C=C/c2ccc(OCc3cn(-c4ccccc4)nn3)cc2)c(=O)n(C)c1=O | 4 mm | 3 mm | 4 mm | 3 mm
COc1cccc(-n2cc(COc3ccc(/C=C/C(=O)c4c(O)n(C)c(=O)n(C)c4=O)cc3)nn2)c1 | 3 mm | 3.5 mm | 3 mm | 2 mm
Cc1cccc(-n2cc(COc3ccc(/C=C/C(=O)c4c(O)n(C)c(=O)n(C)c4=O)cc3)nn2)c1 | 2 mm | 2 mm | 3 mm | 2 mm
Cn1c(O)c(C(=O)/C=C/c2ccc(OCc3cn(-c4ccc(Br)cc4)nn3)cc2)c(=O)n(C)c1=O | 0 mm | 0 mm | 3 mm | 2 mm
Cn1c(O)c(C(=O)/C=C/c2ccc(OCc3cn(-c4ccc(Cl)cc4)nn3)cc2)c(=O)n(C)c1=O | 0 mm | 0 mm | 0 mm | 0 mm
Cn1c(O)c(C(=O)/C=C/c2ccc(OCc3cn(Cc4ccccc4)nn3)cc2)c(=O)n(C)c1=O | 0 mm | 0 mm | 2 mm | 2 mm
COc1ccc(-n2cc(COc3ccc(/C=C/C(=O)c4c(O)n(C)c(=O)n(C)c4=O)cc3)nn2)cc1 | 0 mm | 0 mm | 2 mm | 2 mm
